Results on 6 compounds are retold here after patent US9115149B2, “Heterocyclic compounds as inhibitors of fatty acid biosysnthesis for bacterial infections” (Vitas Pharma Research Private Limited, priority 2011, dated 2015).

Data set [1] relates to Bacillus subtilis (ΔFabI, ΔFabL; Pxylose SaFabI). The data set is described as follows: Target specificity: MIC in B. subtilis expressing S. aureus FabI under xylose inducible promoter. It counts as cell-based. As for the experimental part:
To test for target specificity, the MIC was determined in a Bacillus subtilis strain in which the two FabI homologues (FabI and FabL) were deleted and replaced with S. aureus FabI (Sa FabI) under a Xylose inducible promoter. By varying the amount of xylose in the growth medium, the expression of FabI was proportionately modified. Compounds specifically targeting Sa FabI show an increased MIC when higher amounts of FabI are present in the cell (high Xylose concentrations). In contrast, when FabI levels are low, the cell becomes hypersusceptible, reducing the MIC (low Xylose concentrations). […] Shown below are data for target specificity.

The nature of data set [2]: Metabolic stability in mouse liver microsomes. It counts as in vitro ADME. As for the experimental part:
(§1) Shown below are the biological activities of representative compounds of the invention. The compounds were tested by the microbroth dilution method (National committee for Clinical Laboratory Standards, M07-A8, Volume 29, 2009) to determine the Minimum Inhibitory Concentration (MIC) against Methicillin sensitive and resistant Staphylococcus aureus. The MICs in the presence of 10% BSA was also tested. Further, select compounds were tested for metabolic stability using mouse liver microsomes based on published protocols (Journal of Biological Sciences, 2008, 8, 1110-1114).
In general terms: Liver microsomes are a subcellular fraction often used to study metabolism.

For the next data set, the system named is MRSA ATCC33591. Briefly: Systemic infection model in mice. In kind it is in vivo. As for the experimental part: In order to evaluate the in vivo efficacy of the scaffold, we tested representative compounds for activity in the systemic infection model in mice (Antimicrobial Agents and Chemotherapy, 47, 2507-2512, 2003). In this model, a 15× medial lethal dose of the bacteria (MRSA ATCC33591) was administered to mice intraperitoneally. 1 hour later, VT-02-00068 was administered i.v. at doses of 30, 10 and 3 mg/kg body weight. The compound was administered again 4 hours later. A total of 5 doses were administered, i.e. 2 doses on day 0, 2 on day 1 and 1 on day 2. […] The survival was 100, 100 and 65% at 30, 10 and 3 mg/kg body weight respectively.
VT-02-00044 was tested using the same protocol. The compound was dosed at 50 mg/kg body weight for 3 days, 2 doses per day.

Data set [3] concerns Methicillin resistant Staphylococcus aureus (ATCC 33591). The data set is described as follows: MIC in the presence of BSA. The settings on record: ATCC33591, 10% BSA. It counts as cell-based. The method, then: as §1
Data set [4] shares this test system. The data set is described as follows: MIC by microbroth dilution, methicillin resistant S. aureus. It counts as cell-based. The settings on record: ATCC33591, read-out: Minimum inhibitory concentration (MIC) Methicillin resistant Staphylococcus aureus (ATCC 33591). The method, then: as §1
The test system of data set [5] is Staphylococcus aureus (ATCC29213). Briefly: MIC by microbroth dilution, methicillin sensitive S. aureus. In kind it is cell-based. The settings on record: read-out: Minimum inhibitory concentration (MIC) Staphylococcus aureus (ATCC29213). The method, then: as §1
In general terms: Dilution methods test growth across graded concentrations, often in twofold steps.

Data set [6] is described as follows: Pharmacokinetic profile in male Swiss albino mice. The settings on record: mouse, in vivo; for AUC / Cmax / clearance / half-life: intravenous single dose 5 mg/kg body weight; for bioavailability: po. As for the experimental part: The following compounds were dosed to male Swiss albino mice to determine the pharmacokinetic profiles.
Data set [7] can be described thus: Mutation prevention concentration. It counts as cell-based. As for the experimental part: The mutation prevention concentration or the concentration above which mutants are unlikely to be selected, was determined based on published protocols (Antimicrobial Agents and Chemotherapy, 45, 433-438, 2001).
The test system of data set [8] is S. epidermidis ATCC 12228. Briefly: MIC against non-S. aureus strains. In kind it is cell-based. As for the experimental part: (§2) A subset of compounds was tested against non-S. aureus strains to determine the Minimum Inhibitory Concentration (MIC) against non-S. aureus species (National committee for Clinical Laboratory Standards, M07-A8, Volume 29, 2009).
The subject of a further data set is S. pneumoniae ATCC 6301. Briefly: MIC against non-S. aureus strains. It counts as cell-based. The method, then:
as §2

The next data set relates to E. feacalis ATCC 29212. Briefly: MIC against non-S. aureus strains. It counts as cell-based. The method, then:
as §2

The next data set deals with H. influenzae ATCC 49247. The data set is described as follows: MIC against non-S. aureus strains. It counts as cell-based. As for the experimental part:
as §2

The subject of another data set is M. catarrhalis ATCC 8176. Briefly: MIC against non-S. aureus strains. It counts as cell-based. The method, then:
as §2

Data set [9] has as its system S. haemolyticus ATCC 29970. The data set is described as follows: MIC against non-S. aureus strains. It counts as cell-based. As for the experimental part: as §2
Another data set deals with E. coli ATCC 25922. The data set is described as follows: MIC against non-S. aureus strains. In kind it is cell-based. The method, then:
as §2

Setting [10] is: read-out: MIC in the presence of 0.005% Xylose (low Xylose concentration).
[11] abbreviates: read-out: MIC in the presence of 0.5% Xylose (high Xylose concentration).

A word on the AUC: it is concentration integrated over time. A low value points to less exposure. What is called Cmax is the peak of the concentration-time curve. The clearance is the volume of plasma or blood freed of the substance per unit of time. Low readings indicate a low capacity for elimination, high ones a high capacity for elimination. In general, half-life refers to how long it takes for the measured level to halve. A word on the bioavailability: it is the share of a dose that reaches the circulation, judged against a reference dose that is usually intravenous. A high value points to much systemic uptake.

In brackets after ≈: the same amount, converted by molar mass. Where two headings read alike, the source gives them in different places.

As to `CCn1c(=O)[nH]c2ncc(/C=C/C(=O)N(C)Cc3cc4ccccc4n3C)cc21` [VT-02-00044, (E)-3-(1-ethyl-2-oxo-2,3-dihydro-1H-imidazo[4,5-b]pyridin-6-yl)-N-methyl-N-((1-methyl-1H-indol-2-yl)methyl)acrylamide], the MIC in data set [1] (setting [10]) was below 1.9 ng/mL. In data set [1] (setting [11]), the MIC was found to be 15 ng/mL. Further, the “Metabolic stability (mouse liver microsomes) % of compound remaining after 30 minutes” value in data set [2] is reported as 50%. In addition, the Survival in the data set with MRSA ATCC33591 (50 mg/kg body weight for 3 days, 2 doses per day) amounted to 100%. Moreover, the MIC in [3] stood at 2000 ng/mL. In addition, the MIC in [4] amounted to 1000 ng/mL (≈ 2.57 µM). In addition, in data set [5], the MIC stood at 500 ng/mL (≈ 1.28 µM). For the same compound, in data set [6], the AUC amounted to 1.04 µg·h/mL, the Cmax is 0.949 µg/mL, the clearance is 4.55 L/h/kg and the half-life is 1.65 h. Moreover, the bioavailability in [6] was found to be 29%.
As for `Cc1c(CN(C)C(=O)/C=C/c2cnc3c(c2)C(C)(C)C(=O)N3)oc2ccccc12` [VT-02-00068, (E)-3-(3,3-dimethyl-2-oxo-2,3-dihydro-1H-pyrrolo[2,3-b]pyridin-5-yl)-N-methyl-N-((3-methylbenzofuran-2-yl)methyl)acrylamide], the MIC in data set [1] (setting [10]) is below 0.06 ng/mL; in data set [1] (setting [11]) it was 15 ng/mL; in data set [3] it was 500 ng/mL; in data set [4], 15 ng/mL (≈ 0.0385 µM); in data set [5], 15 ng/mL (≈ 0.0385 µM). Further, the Mutation prevention concentration in [7] worked out at 0.5 ug/ml μg/ml. For the same compound, the “Metabolic stability (mouse liver microsomes) % of compound remaining after 30 minutes” value in [2] came to 21%. Further, the Survival in the data set with MRSA ATCC33591 (3 mg/kg body weight i.v., 5 doses, mortality observed for 7 days) was 65%; with MRSA ATCC33591 (10 mg/kg body weight i.v., 5 doses, mortality observed for 7 days) it was 100%; in the data set on MRSA ATCC33591 (30 mg/kg body weight i.v., 5 doses, mortality observed for 7 days) it was 100%. The AUC in data set [6] was 10.3 µg·h/mL. Besides, the concentration in [6] peaked (Cmax) at 7.85 µg/mL. Further, the clearance in data set [6] was determined as 0.47 L/h/kg. In data set [6], this compound gave a half-life of 1.82 h. This compound gave a bioavailability in data set [6] of 56.1%. Also, the MIC S. epidermidis ATCC 12228 in [8] stood at 30 ng/mL (≈ 0.077 µM). Also, the MIC S. pneumoniae ATCC 6301 in the data set with S. pneumoniae ATCC 6301 is above 32000 ng/mL. Moreover, the MIC E. feacalis ATCC 29212 in the data set on E. feacalis ATCC 29212 is above 16000 ng/mL. The same compound came in with an MIC H. influenzae ATCC 49247 against H. influenzae ATCC 49247 above 16000 ng/mL. The MIC M. catarrhalis ATCC 8176 against M. catarrhalis ATCC 8176 is above 16000 ng/mL. This compound also came in with an MIC S. haemolyticus ATCC 29970 in data set [9] of 250 ng/mL (≈ 0.642 µM). This compound also returned an MIC E. coli ATCC 25922 in the data set on E. coli ATCC 25922 above 16000 ng/mL.
With `CCC1(CC)C(=O)Nc2ncc(/C=C/C(=O)N(C)Cc3oc4ccccc4c3C)cc21` [VT-02-00071, (E)-3-(3,3-diethyl-2-oxo-2,3-dihydro-1H-pyrrolo[2,3-b]pyridin-5-yl)-N-methyl-N-((3-methylbenzofuran-2-yl)methyl)acrylamide], the MIC in data set [1] (setting [10]) is 0.000477 ng/mL. In data set [1] (setting [11]), the MIC stood at 0.06 ng/mL. Moreover, the “Metabolic stability (mouse liver microsomes) % of compound remaining after 30 minutes” value in data set [2] amounted to 12%. In addition, the MIC in [3] is 250 ng/mL. The MIC in data set [4] was found to be 15 ng/mL (≈ 0.0359 µM). Moreover, the MIC in data set [5] stood at 15 ng/mL (≈ 0.0359 µM). In data set [6], this compound gave an AUC of 1.22 µg·h/mL, a Cmax of 1.55 µg/mL, a clearance of 4.07 L/h/kg and a half-life of 0.52 h. Moreover, in data set [6], the bioavailability was 26%.
For the compound `Cc1c(CN(C)C(=O)/C=C/c2cnc3c(c2)C2(CCC2)C(=O)N3)sc2ccccc12` [VT-02-00073, (E)-N-methyl-N-((3-methylbenzo[b]thiophen-2-yl)methyl)-3-(2′-oxo-1′,2′-dihydrospiro[cyclobutane-1,3′-pyrrolo[2,3-b]pyridine]-5′-yl)acrylamide], the MIC in [1] (setting [10]) came to 0.00381 ng/mL. Further, the MIC in data set [1] (setting [11]) came to 0.97 ng/mL. The “Metabolic stability (mouse liver microsomes) % of compound remaining after 30 minutes” value in [2] turned out to be 11%. Further, in [3], the MIC was 250 ng/mL. The MIC in data set [4] is 15 ng/mL (≈ 0.0359 µM). For the same compound, the MIC in [5] came out at 15 ng/mL (≈ 0.0359 µM). In data set [6], this compound showed an AUC of 7.32 µg·h/mL, a Cmax of 4.38 µg/mL, a clearance of 0.668 L/h/kg and a half-life of 1.89 h. The bioavailability in [6] came to 38.5%.
In the case of `CCC1(CC)C(=O)Nc2ncc(/C=C/C(=O)N(C)Cc3sc4ccccc4c3C)cc21` [VT-02-00078, (E)-3-(3,3-diethyl-2-oxo-2,3-dihydro-1H-pyrrolo[2,3-b]pyridin-5-yl)-N-methyl-N-((3-methylbenzo[b]thiophen-2-yl)methyl)acrylamide], the MIC in data set [1] (setting [10]) was below 2.98e-05 ng/mL; in data set [1] (setting [11]) it was 1.91e-05 ng/mL; in data set [3] it was 250 ng/mL; in data set [4], 15 ng/mL (≈ 0.0346 µM); in data set [5], 15 ng/mL (≈ 0.0346 µM). Also, the “Metabolic stability (mouse liver microsomes) % of compound remaining after 30 minutes” value in [2] stood at 15%. Besides, in data set [6], the AUC is 1.41 µg·h/mL. In data set [6], this compound gave a clearance of 3.51 L/h/kg. Also, the half-life in [6] was 0.32 h. The bioavailability in data set [6] was found to be 67.1%.
As to `Cc1c(CN(C)C(=O)/C=C/c2cnc3c(c2)C2(CCC2)C(=O)N3)c2ccccc2n1C` [VT-02-00091, (E)-N-((1,2-dimethyl-1H-indol-3-yl)methyl)-N-methyl-3-(T-oxo-1′,2′-dihydrospiro[cyclobutane-1,3′-pyrrolo[2,3-b]pyridine]-5′-yl)acrylamide], the MIC in data set [1] (setting [11]) worked out at 0.061 ng/mL; in [3], 120 ng/mL; in data set [4], 15 ng/mL (≈ 0.0362 µM); in data set [5], 15 ng/mL (≈ 0.0362 µM). In data set [7], this compound yielded a Mutation prevention concentration of 0.06 µg/mL. Moreover, in data set [2], the “Metabolic stability (mouse liver microsomes) % of compound remaining after 30 minutes” value worked out at 21%. The same compound yielded an MIC S. epidermidis ATCC 12228 in [8] of 15 ng/mL (≈ 0.0362 µM). For the same compound, the MIC S. pneumoniae ATCC 6301 against S. pneumoniae ATCC 6301 was above 32000 ng/mL. Also, the MIC E. feacalis ATCC 29212 in the data set with E. feacalis ATCC 29212 was above 16000 ng/mL. Moreover, the MIC H. influenzae ATCC 49247 with H. influenzae ATCC 49247 was above 16000 ng/mL. Further, the MIC M. catarrhalis ATCC 8176 in the data set on M. catarrhalis ATCC 8176 is above 16000 ng/mL. Moreover, the MIC S. haemolyticus ATCC 29970 in [9] turned out to be 15 ng/mL (≈ 0.0362 µM). In the data set with E. coli ATCC 25922, the MIC E. coli ATCC 25922 was above 16000 ng/mL.
